From BindingDB's records for doi:10.3109/14756366.2013.777717 (Tokushima Bunri University, 2014)

These compounds were tested against T1, Sphingomyelinase C (Bacillus cereus, UniProt P11889) (assay: Turbidometric Assay). Conditions: pH 7.5; 37 °C.
T1 sequence (P11889 whole entry): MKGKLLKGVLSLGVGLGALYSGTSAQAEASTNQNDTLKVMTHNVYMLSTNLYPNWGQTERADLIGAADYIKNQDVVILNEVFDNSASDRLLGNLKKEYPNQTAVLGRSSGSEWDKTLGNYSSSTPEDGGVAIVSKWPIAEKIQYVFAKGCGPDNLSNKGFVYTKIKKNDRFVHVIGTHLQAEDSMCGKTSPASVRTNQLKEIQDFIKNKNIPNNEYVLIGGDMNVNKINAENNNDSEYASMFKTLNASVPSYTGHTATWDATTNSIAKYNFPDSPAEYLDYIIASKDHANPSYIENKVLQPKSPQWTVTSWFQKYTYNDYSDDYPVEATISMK
Protocol: Briefly, Bc-SMase (50 ng/ml) was treated at 37 °C for 60 min with various compounds that were solubilized in dimethylacetoamide. The reaction mixture was incubated at 37 °C for 5 h with 1.0mM SM from bovine brain (Nacalai, Kyoto, Japan) that was solubilized in a solution containing 20mM Tris-HCl (pH 7.5), 1.0% sodium cholate, and 1mM MgCl2. The turbidity of the reaction mixture was analysed by absorption spectrometer at 620 nm.

Row | Structure (SMILES) | IC50 [µM] | Ki [µM]
1 | CCCCCCCCCCCCC/C=C/[C@@H](O)[C@H](COCc1cccc(-c2ccccn2)n1)NC(=O)CCCCC [RY221B-a] | 1.2 | 5.2
2 | CCCCCCCCCCCCC/C=C/[C@@H](Oc1cccc(-c2ccccn2)n1)[C@H](CO)NC(=O)CCCCC [RY221B-b] | > 20 | 
3 | CCCCCC(=O)N[C@@H](COCc1cccc(-c2ccccn2)n1)[C@H](O)/C=C/COc1ccc(C(=O)c2ccccc2)cc1 [SMY-469a] | > 20 | 
4 | CCCCCCCCCCCCC/C=C/[C@@H](O)[C@@H](N)COCc1cccc(-c2ccccn2)n1 [SMY-471] | 0.9 | 2.8
5 | CCCCCC(=O)N[C@@H](COCc1cccc(-c2ccccn2)n1)[C@H](O)c1ccccc1 [SMY-540] | 0.8 | 1.3
6 | CCCCCCCCCCCCC/C=C/[C@@H](O)[C@H](COCc1cccc(-c2ccccn2)n1)NC(=O)OC(C)(C)C [SMY-579] | 18.3 | 
7 | CCCCCCCCCCCCCCC[C@@H](O)[C@H](COCc1cccc(-c2ccccn2)n1)NC(=O)CCCCC [SMY-584] | > 20 | 
8 | CCCCCCCCCCCCC/C=C/[C@@H](Oc1cccc(-c2ccccn2)n1)[C@H](COCc1cccc(-c2ccccn2)n1)NC(=O)CCCCC [SMY-610] | 3.3 | 
9 | CCCCCCCCCCCCC/C=C/[C@@H](O)[C@H](COCc1cccc(-c2ccccn2)c1)NC(=O)CCCCC [SMY-632] | > 20 | 
10 | CCCCCC(=O)OC[C@H](COCc1cccc(-c2ccccn2)n1)OC(=O)CCCCC [TOM-2-7] | > 20 | 
11 | CCCCCCOC[C@H](COCc1cccc(-c2ccccn2)n1)OCCCCCC [TOM-2-18] | > 20 | 
12 | CCCCCCCCCCCCCCCCOC[C@H](COCc1cccc(-c2ccccn2)n1)OCCCCCCCCCCCCCCCC [TOM-2-37] | > 20 | 
